Results as given in patent publication US10457691B2, “Macrocyclic kinase inhibitors and uses thereof” (Dana-Farber Cancer Institute, Inc., priority 2014, dated 2019).

Tests used:
Type in all cases: biochemical
Conditions in all cases: read-out: Activity of the protein kinase when treated with compound I-1 (% control)
ERK2 = ERK2 (Homo sapiens, UniProt P28482); test: Protein kinase assay ([γ-32P] ATP), ERK2
Experimental: (§1) In another set of experiments, the activities of the compounds described herein against various protein kinases were determined according to the methods reported in Hastie et al., Nature Protocols, 2006, 1, 968-971.
(§2) Enzyme dilution buffer. This buffer consisted of 50 mM Tris-HCl, pH 7.5, 0.1 mM EGTA, 1 mg ml^−1 bovine serum albumin and 0.1% (vol/vol) 2-mercaptoethanol.
(§3) 10× concentrated assay buffer. An assay buffer of 500 mM Tris-HCl, pH 7.5, 1 mM EGTA, and 100 mM magnesium acetate was used for assay of a wide variety of protein kinases. In some experiments, other cofactors were included (e.g., calcium ions and calmodulin were included for assay of calcium-calmodulindependent protein kinases).
(§4) 1 mM [γ-^32P] ATP. The specific activity of the [γ-^32P] ATP solution was 1×10^5 to 1×10^6 c.p.m. per nmol depending on what was needed to produce an optimal signal/noise ratio. […] To measure the concentration of ATP, a sample of such a stock solution was diluted to 20 μM, and the absorbance of the diluted sample was measured at 259 nm. The absorbance of a 20-μM stock solution of ATP at 259 nm was about 0.31. […] ATP to produce a radioactivity of 1×10^5 to 1×10^6 c.p.m. per nmol. […]
(§5) 13) Measure radioactivity in the samples by Cerenkov counting (e.g., without liquid scintillation fluid) in a liquid scintillation counter using a “^32P program”. […]

IRR = IRR (Homo sapiens, UniProt P14616); test: Protein kinase assay ([γ-32P] ATP), IRR
Experimental: as §1, §2, §3, §4, §5

JNK3 = JNK3 (Homo sapiens, UniProt P53779); test: Protein kinase assay ([γ-32P] ATP), JNK3
Experimental: as §1, §2, §3, §4, §5

EPH-B3 = EPH-B3 (Homo sapiens, UniProt P54753); test: Protein kinase assay ([γ-32P] ATP), EPH-B3
Experimental: as §1, §2, §3, §4, §5

TESK1 = TESK1 (Homo sapiens, UniProt Q15569); test: Protein kinase assay ([γ-32P] ATP), TESK1
Experimental: as §1, §2, §3, §4, §5

IRAK4 = IRAK4 (Homo sapiens, UniProt Q9NWZ3); test: Protein kinase assay ([γ-32P] ATP), IRAK4
Experimental: as §1, §2, §3, §4, §5

p38a MAPK = p38a MAPK (Homo sapiens, UniProt Q16539); test: Protein kinase assay ([γ-32P] ATP), p38a MAPK
Experimental: as §1, §2, §3, §4, §5

ASK1 = ASK1 (Homo sapiens, UniProt Q99683); test: Protein kinase assay ([γ-32P] ATP), ASK1
Experimental: as §1, §2, §3, §4, §5

CAMK1 = CAMK1 (Homo sapiens, UniProt Q14012); test: Protein kinase assay ([γ-32P] ATP), CAMK1
Experimental: as §1, §2, §3, §4, §5

TBK1 = TBK1 (Homo sapiens, UniProt Q9UHD2); test: Protein kinase assay ([γ-32P] ATP), TBK1
Experimental: as §1, §2, §3, §4, §5

CHK2 = CHK2 (Homo sapiens, UniProt O96017); test: Protein kinase assay ([γ-32P] ATP), CHK2
Experimental: as §1, §2, §3, §4, §5

CDK2-Cyclin A = CDK2-Cyclin A (Homo sapiens, UniProt P24941); test: Protein kinase assay ([γ-32P] ATP), CDK2-Cyclin A
Experimental: as §1, §2, §3, §4, §5

MKK1 = MKK1 (Homo sapiens, UniProt Q02750); test: Protein kinase assay ([γ-32P] ATP), MKK1
Experimental: as §1, §2, §3, §4, §5

PIM3 = PIM3 (Homo sapiens, UniProt Q86V86); test: Protein kinase assay ([γ-32P] ATP), PIM3
Experimental: as §1, §2, §3, §4, §5

DDR2 = DDR2 (Homo sapiens, UniProt Q16832); test: Protein kinase assay ([γ-32P] ATP), DDR2
Experimental: as §1, §2, §3, §4, §5

GCK = GCK (Homo sapiens, UniProt Q12851); test: Protein kinase assay ([γ-32P] ATP), GCK
Experimental: as §1, §2, §3, §4, §5

TSSK1 = TSSK1 (Homo sapiens, UniProt Q9BXA7); test: Protein kinase assay ([γ-32P] ATP), TSSK1
Experimental: as §1, §2, §3, §4, §5

[1] = 0.1 μM of compound I-1, DMSO control = 100%
[2] = 1 μM of compound I-1, DMSO control = 100%

ASK1, sequence (Q99683 whole entry): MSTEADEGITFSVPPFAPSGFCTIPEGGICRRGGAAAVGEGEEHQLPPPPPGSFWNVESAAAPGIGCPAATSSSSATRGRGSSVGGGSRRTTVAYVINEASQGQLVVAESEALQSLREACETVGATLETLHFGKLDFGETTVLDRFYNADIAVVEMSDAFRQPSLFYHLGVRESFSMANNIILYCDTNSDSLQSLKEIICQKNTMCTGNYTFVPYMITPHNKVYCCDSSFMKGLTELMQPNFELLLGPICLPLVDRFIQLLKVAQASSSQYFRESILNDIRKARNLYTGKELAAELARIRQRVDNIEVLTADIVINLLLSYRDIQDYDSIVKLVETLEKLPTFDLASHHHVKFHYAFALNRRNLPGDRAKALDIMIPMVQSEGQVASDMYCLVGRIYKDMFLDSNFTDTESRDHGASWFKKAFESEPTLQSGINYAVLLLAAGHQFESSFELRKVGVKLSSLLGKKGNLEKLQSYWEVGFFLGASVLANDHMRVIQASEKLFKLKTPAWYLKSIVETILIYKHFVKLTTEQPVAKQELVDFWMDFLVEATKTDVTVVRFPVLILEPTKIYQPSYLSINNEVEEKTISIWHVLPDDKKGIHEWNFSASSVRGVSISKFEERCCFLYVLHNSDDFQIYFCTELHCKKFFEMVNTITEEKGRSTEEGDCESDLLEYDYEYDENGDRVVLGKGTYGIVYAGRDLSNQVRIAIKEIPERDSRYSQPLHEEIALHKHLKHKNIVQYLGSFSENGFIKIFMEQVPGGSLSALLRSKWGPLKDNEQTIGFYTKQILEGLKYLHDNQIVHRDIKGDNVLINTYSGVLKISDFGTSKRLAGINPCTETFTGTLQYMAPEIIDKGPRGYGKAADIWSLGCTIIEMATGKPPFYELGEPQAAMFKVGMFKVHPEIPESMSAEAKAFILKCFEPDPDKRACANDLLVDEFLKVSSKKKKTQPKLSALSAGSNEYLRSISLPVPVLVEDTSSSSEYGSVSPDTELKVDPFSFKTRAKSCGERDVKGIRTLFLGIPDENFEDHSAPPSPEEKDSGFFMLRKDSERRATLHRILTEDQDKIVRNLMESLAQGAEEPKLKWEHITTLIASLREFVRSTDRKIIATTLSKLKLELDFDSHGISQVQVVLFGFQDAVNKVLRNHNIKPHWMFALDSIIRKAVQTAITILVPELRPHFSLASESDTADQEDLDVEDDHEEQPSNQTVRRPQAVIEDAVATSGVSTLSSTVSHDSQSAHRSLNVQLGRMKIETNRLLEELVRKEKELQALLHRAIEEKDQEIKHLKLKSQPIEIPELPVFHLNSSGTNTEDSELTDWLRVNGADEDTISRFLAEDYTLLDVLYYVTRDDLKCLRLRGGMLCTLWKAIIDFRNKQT
CAMK1, sequence (Q14012 whole entry): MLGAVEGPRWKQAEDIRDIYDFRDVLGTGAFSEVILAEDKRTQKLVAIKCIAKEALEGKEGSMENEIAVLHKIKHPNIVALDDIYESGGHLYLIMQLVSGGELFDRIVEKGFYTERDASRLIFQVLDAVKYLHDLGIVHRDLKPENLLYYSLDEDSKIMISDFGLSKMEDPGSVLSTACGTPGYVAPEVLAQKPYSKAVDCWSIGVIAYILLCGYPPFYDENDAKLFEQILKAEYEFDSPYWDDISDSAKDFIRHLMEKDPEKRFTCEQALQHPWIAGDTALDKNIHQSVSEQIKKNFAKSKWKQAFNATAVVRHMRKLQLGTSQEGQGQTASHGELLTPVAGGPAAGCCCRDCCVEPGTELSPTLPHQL
ERK2, sequence (P28482 whole entry): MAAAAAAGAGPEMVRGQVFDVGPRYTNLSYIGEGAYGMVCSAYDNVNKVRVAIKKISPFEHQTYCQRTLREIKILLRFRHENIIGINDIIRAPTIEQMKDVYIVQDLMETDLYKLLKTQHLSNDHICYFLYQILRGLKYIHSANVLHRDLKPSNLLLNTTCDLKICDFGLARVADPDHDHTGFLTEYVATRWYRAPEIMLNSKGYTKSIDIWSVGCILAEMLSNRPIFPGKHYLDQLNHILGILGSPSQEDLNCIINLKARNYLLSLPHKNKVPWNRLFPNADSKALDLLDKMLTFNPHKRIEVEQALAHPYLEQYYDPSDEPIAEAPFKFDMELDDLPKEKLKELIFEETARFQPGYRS
p38a MAPK, sequence (Q16539 whole entry): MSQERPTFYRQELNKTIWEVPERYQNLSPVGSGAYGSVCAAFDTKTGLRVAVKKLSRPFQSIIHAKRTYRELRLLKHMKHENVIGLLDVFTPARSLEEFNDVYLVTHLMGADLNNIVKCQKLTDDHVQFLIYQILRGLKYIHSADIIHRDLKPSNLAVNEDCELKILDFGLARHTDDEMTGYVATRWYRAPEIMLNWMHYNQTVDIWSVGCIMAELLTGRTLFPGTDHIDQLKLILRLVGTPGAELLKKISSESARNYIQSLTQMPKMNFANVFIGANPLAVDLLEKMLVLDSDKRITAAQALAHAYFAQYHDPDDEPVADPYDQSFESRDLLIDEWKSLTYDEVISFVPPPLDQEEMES
TBK1, sequence (Q9UHD2 whole entry, species assumed): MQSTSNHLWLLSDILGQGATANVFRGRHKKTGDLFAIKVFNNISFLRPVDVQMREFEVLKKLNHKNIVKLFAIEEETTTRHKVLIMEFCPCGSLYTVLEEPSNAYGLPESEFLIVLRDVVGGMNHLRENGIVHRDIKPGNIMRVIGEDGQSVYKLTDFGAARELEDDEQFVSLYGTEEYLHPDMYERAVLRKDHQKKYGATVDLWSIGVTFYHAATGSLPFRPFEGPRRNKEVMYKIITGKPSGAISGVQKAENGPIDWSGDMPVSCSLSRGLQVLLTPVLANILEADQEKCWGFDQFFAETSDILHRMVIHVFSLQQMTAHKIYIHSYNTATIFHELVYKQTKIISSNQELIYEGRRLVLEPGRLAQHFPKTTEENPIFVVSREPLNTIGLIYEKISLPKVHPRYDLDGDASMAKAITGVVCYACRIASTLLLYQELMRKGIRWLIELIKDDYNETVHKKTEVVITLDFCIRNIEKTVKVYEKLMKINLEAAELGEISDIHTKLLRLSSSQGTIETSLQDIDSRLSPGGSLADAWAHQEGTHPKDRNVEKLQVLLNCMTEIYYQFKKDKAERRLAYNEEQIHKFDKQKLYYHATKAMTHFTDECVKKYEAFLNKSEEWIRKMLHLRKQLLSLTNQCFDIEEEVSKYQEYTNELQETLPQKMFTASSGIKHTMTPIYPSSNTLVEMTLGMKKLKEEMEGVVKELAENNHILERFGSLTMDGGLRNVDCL
IRR, sequence (P14616 27-1297): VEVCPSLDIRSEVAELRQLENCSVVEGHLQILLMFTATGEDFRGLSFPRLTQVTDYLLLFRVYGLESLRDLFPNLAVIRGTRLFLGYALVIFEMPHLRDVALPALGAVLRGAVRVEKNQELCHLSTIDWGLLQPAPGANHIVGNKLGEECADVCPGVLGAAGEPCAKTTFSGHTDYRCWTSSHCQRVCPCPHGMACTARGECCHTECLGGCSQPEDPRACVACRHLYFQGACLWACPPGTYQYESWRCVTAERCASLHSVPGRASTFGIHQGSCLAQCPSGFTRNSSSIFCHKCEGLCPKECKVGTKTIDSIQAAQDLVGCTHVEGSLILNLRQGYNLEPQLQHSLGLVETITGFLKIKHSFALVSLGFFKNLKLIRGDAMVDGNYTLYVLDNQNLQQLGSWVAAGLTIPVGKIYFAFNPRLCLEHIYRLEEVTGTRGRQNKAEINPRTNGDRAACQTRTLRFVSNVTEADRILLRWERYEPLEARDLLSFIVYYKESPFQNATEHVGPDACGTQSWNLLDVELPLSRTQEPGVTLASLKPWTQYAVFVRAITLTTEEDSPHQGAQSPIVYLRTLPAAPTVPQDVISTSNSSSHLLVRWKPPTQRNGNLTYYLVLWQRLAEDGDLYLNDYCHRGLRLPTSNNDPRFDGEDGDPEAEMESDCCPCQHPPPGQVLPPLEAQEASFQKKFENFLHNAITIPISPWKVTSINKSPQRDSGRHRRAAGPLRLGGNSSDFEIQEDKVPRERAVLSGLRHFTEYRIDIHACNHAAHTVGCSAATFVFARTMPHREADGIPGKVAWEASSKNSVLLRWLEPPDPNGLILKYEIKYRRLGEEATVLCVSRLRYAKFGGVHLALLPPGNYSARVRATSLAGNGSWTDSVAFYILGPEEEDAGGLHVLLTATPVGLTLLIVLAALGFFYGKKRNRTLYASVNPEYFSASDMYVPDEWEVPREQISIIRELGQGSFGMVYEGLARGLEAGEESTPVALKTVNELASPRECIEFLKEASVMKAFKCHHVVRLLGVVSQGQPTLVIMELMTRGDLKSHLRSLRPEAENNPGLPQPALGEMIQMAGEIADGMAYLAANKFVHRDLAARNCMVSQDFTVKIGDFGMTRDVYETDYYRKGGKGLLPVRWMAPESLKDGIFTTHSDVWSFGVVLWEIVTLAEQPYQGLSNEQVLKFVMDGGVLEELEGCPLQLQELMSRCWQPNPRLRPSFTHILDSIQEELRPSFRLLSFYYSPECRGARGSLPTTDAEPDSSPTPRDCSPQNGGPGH
IRAK4, sequence (Q9NWZ3 whole entry): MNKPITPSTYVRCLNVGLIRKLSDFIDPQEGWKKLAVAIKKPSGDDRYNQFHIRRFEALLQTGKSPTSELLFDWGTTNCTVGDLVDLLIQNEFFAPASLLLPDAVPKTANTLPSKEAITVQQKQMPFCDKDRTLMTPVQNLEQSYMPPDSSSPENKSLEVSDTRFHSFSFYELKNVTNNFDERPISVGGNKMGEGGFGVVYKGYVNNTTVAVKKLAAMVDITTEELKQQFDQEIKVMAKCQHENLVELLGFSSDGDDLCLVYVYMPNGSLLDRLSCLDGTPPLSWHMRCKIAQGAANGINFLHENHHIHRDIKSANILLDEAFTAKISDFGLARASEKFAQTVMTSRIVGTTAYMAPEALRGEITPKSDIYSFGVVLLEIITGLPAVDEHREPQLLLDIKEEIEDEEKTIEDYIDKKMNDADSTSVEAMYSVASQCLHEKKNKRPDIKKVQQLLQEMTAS

Cc1cccc(C)c1NC(=O)N1C/C=C\COc2cccc(c2)Nc2cc1ncn2 [Compound I-1]
remaining activity at 0.1 µM (ERK2; [1]): 104%
remaining activity at 1 µM (ERK2; [2]): 80%
remaining activity at 0.1 µM (IRR; [1]): 98%
remaining activity at 1 µM (IRR; [2]): 83%
remaining activity at 0.1 µM (JNK3; [1]): 51%
remaining activity at 1 µM (JNK3; [2]): 30%
remaining activity at 0.1 µM (EPH-B3; [1]): 25%
remaining activity at 1 µM (EPH-B3; [2]): 2%
remaining activity at 0.1 µM (TESK1; [1]): 40%
remaining activity at 1 µM (TESK1; [2]): 21%
remaining activity at 0.1 µM (IRAK4; [1]): 92%
remaining activity at 1 µM (IRAK4; [2]): 86%
remaining activity at 0.1 µM (p38a MAPK; [1]): 79%
remaining activity at 1 µM (p38a MAPK; [2]): 14%
remaining activity at 0.1 µM (ASK1; [1]): 117%
remaining activity at 1 µM (ASK1; [2]): 96%
remaining activity at 0.1 µM (CAMK1; [1]): 115%
remaining activity at 1 µM (CAMK1; [2]): 56%
remaining activity at 0.1 µM (TBK1; [1]): 109%
remaining activity at 1 µM (TBK1; [2]): 83%
remaining activity at 0.1 µM (CHK2; [1]): 107%
remaining activity at 1 µM (CHK2; [2]): 72%
remaining activity at 0.1 µM (CDK2-Cyclin A; [1]): 107%
remaining activity at 1 µM (CDK2-Cyclin A; [2]): 84%
remaining activity at 0.1 µM (MKK1; [1]): 96%
remaining activity at 1 µM (MKK1; [2]): 81%
remaining activity at 0.1 µM (PIM3; [1]): 93%
remaining activity at 1 µM (PIM3; [2]): 84%
remaining activity at 0.1 µM (DDR2; [1]): 28%
remaining activity at 1 µM (DDR2; [2]): 3%
remaining activity at 0.1 µM (GCK; [1]): 71%
remaining activity at 1 µM (GCK; [2]): 16%
remaining activity at 0.1 µM (TSSK1; [1]): 83%
remaining activity at 1 µM (TSSK1; [2]): 85%
